Values belong to the molecule of their own block, whether it stands above or below them. The source made the active and inactive calls. The calls are words filed in the database; no cut-off is given here.
Assays:
Histamine H3 receptor [1] = biological target: T1, Histamine H3 receptor (Homo sapiens, UniProt Q9Y5N1); test: Binding affinity to human histamine H3 receptor
[2] = Oral bioavailability in rat; format: ADME, organism-based; settings: in vivo
[3] = Half life in rat liver microsomes; format: ADME
Cytochrome P450 1A2 = biological target: T2, Cytochrome P450 1A2 (Homo sapiens, UniProt P05177); test: Inhibition of CYP1A2 (unknown origin); format: ADME
T2 sequence (P05177 whole entry): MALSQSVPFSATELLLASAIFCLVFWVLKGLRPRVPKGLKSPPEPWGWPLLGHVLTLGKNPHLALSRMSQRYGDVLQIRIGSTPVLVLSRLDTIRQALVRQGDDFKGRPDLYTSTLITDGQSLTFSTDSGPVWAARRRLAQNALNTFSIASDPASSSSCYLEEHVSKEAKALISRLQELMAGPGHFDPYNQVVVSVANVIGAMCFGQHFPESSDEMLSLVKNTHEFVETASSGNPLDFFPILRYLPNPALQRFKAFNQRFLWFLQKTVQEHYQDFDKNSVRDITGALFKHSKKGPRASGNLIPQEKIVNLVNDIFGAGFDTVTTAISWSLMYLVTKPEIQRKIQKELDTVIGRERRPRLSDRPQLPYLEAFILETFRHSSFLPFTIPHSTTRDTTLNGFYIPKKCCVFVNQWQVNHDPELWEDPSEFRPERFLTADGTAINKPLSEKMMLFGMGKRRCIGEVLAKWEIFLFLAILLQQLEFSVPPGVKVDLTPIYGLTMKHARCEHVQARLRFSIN

[4] = Half life in monkey liver microsomes; format: ADME, Macaca mulatta; settings: rhesus monkey
[5] = Half life in human liver microsomes; format: ADME
[6] = Half life in mouse liver microsomes; format: ADME
[7] = Clearance in iv dosed rat; format: ADME, organism-based; settings: in vivo
Histamine H3 receptor [8] = biological target: Histamine H3 receptor (Rattus norvegicus, UniProt Q9QYN8); test: Binding affinity to rat histamine H3 receptor
Chain of Histamine H3 receptor (Rattus norvegicus, UniProt Q9QYN8) (Q9QYN8 whole entry): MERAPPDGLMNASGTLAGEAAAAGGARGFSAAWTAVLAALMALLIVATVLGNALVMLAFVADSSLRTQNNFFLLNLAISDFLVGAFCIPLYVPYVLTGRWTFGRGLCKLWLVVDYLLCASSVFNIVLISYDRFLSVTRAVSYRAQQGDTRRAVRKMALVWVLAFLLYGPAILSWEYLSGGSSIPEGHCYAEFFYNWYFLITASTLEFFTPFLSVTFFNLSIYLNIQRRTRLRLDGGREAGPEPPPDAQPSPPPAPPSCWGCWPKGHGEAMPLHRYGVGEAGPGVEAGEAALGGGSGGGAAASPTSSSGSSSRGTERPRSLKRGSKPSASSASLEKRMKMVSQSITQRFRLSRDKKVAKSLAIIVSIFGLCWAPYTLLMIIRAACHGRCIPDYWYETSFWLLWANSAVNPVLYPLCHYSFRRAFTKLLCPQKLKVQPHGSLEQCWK

[9] = Half life in iv dosed rat; format: ADME, organism-based; settings: in vivo
[10] = Half life in dog liver microsomes; format: ADME, Canis lupus familiaris
[11] = Cmax in monkey at 3 mg/kg, po; format: ADME, organism-based, Macaca mulatta; parameters: dose 3 mg/kg, route oral; settings: rhesus monkey, in vivo
[12] = Plasma protein binding in rat; format: ADME, cell-free; settings: read-out: PPB (converted)
Rattus norvegicus [13] = test: Wake promoting activity in rat EEG/EMG model assessed as AUC of cumulative wake at 30 mg/kg, ip up to 5.5 hrs relative to vehicle-treated control; format: functional, organism-based; parameters: dose 30 mg/kg, time < 5.5 hr
[14] = AUC (0 to t) in monkey at 3 mg/kg, po; format: ADME, organism-based, Macaca mulatta; parameters: dose 3 mg/kg, route oral; settings: rhesus monkey, plasma
Rattus norvegicus [15] = species: Rattus norvegicus; settings: 10 mg/kg
[16] = Cmax in rat at 10 mg/kg, po; format: ADME, organism-based; parameters: dose 10 mg/kg, route oral; settings: in vivo
[17] = Oral bioavailability in rat at 10 mg/kg; format: ADME, organism-based; settings: in vivo
[18] = Aqueous solubility of the compound at pH 2; format: physicochemical
Canis familiaris [19] = test: Oral bioavailability in dog at 3 mg/kg; format: ADME, organism-based, Canis lupus familiaris; settings: in vivo
Rattus norvegicus [20] = test: Wake promoting activity in ip dosed rat EEG/EMG model; format: functional, organism-based
[21] = Permeability across human Caco2 cells; format: ADME, cell-based; settings: Caco-2
[22] = AUC (0 to t) in rat at 10 mg/kg, po; format: ADME, organism-based; parameters: dose 10 mg/kg, route oral; settings: plasma
Rattus norvegicus [23] = test: Wake promoting activity in rat EEG/EMG model assessed as total time awake at 30 mg/kg, ip at 6.5 hrs relative to vehicle-treated control; format: functional; settings: route intraperitoneal
Rattus norvegicus [24] = test: Wake promoting activity in rat EEG/EMG model assessed as AUC of cumulative wake at 3 mg/kg, ip up to 4 hrs relative to vehicle-treated control; format: functional, organism-based; parameters: dose 3 mg/kg, time < 4 hr
[25] = biological target: Sodium-dependent dopamine transporter (Homo sapiens, UniProt Q01959); test: Inhibition of DAT (unknown origin)
Chain of Sodium-dependent dopamine transporter (Q01959 whole entry): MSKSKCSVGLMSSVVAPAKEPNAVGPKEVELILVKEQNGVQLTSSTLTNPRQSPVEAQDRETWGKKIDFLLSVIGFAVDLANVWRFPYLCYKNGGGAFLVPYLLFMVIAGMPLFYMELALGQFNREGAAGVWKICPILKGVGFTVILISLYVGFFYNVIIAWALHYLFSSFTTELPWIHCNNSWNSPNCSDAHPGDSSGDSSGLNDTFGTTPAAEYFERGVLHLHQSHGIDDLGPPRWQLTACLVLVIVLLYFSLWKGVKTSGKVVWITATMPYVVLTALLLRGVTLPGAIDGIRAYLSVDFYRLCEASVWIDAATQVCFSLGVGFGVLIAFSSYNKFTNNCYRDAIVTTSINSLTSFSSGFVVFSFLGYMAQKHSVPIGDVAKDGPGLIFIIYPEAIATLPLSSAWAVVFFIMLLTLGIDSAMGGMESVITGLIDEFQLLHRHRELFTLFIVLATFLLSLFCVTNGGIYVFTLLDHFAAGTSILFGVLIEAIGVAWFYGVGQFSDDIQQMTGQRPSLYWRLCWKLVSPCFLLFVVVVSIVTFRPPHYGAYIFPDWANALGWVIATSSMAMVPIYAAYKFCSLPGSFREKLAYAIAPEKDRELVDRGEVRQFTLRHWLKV

Rattus norvegicus [26] = test: Toxicity in po dosed rat; format: organism-based; settings: in vivo
Rattus norvegicus [27] = test: Wake promoting activity in rat EEG/EMG model assessed as recovery from sleep at 3 to 30 mg/kg, ip after 22 hrs relative to vehicle-treated control; format: functional, organism-based
[28] = Oral bioavailability in monkey at 3 mg/kg; format: ADME, organism-based, Macaca mulatta; settings: rhesus monkey, in vivo
[29] = Half life in rat at 1 mg/kg, iv; format: ADME, organism-based; parameters: dose 1 mg/kg, route intravenous; settings: in vivo
[30] = Clearance in monkey at 1 mg/kg, iv; format: ADME, organism-based, Macaca mulatta; parameters: dose 1 mg/kg, route intravenous; settings: rhesus monkey, in vivo
[31] = Volume of distribution at steady state in monkey at 1 mg/kg, iv; format: ADME, organism-based, Macaca mulatta; parameters: dose 1 mg/kg, route intravenous; settings: rhesus monkey, in vivo, read-out: Vdss
[32] = Half life in monkey at 1 mg/kg, iv; format: ADME, organism-based, Macaca mulatta; parameters: dose 1 mg/kg, route intravenous; settings: rhesus monkey, in vivo
[33] = Plasma protein binding in dog; format: ADME, cell-free, Canis lupus familiaris; settings: read-out: PPB (converted)
[34] = Volume of distribution at steady state in dog at 1 mg/kg, iv; format: ADME, organism-based, Canis lupus familiaris; parameters: dose 1 mg/kg, route intravenous; settings: in vivo, read-out: Vdss
[35] = Ratio of drug level in brain to plasma in rat at 10 mg/kg, ip after 2 hrs; format: ADME, organism-based; parameters: dose 10 mg/kg, route intraperitoneal; settings: read-out: BPR
[36] = Volume of distribution at steady state in rat at 1 mg/kg, iv; format: ADME, organism-based; parameters: dose 1 mg/kg, route intravenous; settings: in vivo, read-out: Vdss
Histamine H3 receptor [37] = biological target: T1, Histamine H3 receptor; test: Inverse agonist activity at human H3R expressed in CHO cells assessed as inhibition of RAMH-induced [35S]GTPgammaS binding relative to control; format: functional, cell-based
Rattus norvegicus [38] = test: Toxicity in rat at 3 to 30 mg/kg, ip; format: organism-based; parameters: dose 3-30 mg/kg, route intraperitoneal; settings: in vivo
Histamine H2 receptor = Histamine H2 receptor (Homo sapiens, UniProt P25021); test: Inhibition of human H2R
Chain of Histamine H2 receptor (P25021 whole entry): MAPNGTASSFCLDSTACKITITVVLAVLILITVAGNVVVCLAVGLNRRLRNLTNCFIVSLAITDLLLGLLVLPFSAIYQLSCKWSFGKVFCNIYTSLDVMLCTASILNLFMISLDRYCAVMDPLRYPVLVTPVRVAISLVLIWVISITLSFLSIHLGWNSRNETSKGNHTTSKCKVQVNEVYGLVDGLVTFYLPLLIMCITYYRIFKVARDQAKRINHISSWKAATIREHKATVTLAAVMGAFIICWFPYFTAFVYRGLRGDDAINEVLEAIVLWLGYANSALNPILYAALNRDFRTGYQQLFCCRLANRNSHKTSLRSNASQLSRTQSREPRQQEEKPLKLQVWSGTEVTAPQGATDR

[39] = Cmax in dog at 3 mg/kg, po; format: ADME, organism-based, Canis lupus familiaris; parameters: dose 3 mg/kg, route oral; settings: in vivo
[40] = Ratio of drug level in brain to plasma in dog at 10 mg/kg, ip after 2 hrs; format: ADME, organism-based, Canis lupus familiaris; parameters: dose 10 mg/kg, route intraperitoneal; settings: read-out: BPR
Histamine H1 receptor = Histamine H1 receptor (Homo sapiens, UniProt P35367); test: Inhibition of human H1R
Chain of Histamine H1 receptor (P35367 whole entry): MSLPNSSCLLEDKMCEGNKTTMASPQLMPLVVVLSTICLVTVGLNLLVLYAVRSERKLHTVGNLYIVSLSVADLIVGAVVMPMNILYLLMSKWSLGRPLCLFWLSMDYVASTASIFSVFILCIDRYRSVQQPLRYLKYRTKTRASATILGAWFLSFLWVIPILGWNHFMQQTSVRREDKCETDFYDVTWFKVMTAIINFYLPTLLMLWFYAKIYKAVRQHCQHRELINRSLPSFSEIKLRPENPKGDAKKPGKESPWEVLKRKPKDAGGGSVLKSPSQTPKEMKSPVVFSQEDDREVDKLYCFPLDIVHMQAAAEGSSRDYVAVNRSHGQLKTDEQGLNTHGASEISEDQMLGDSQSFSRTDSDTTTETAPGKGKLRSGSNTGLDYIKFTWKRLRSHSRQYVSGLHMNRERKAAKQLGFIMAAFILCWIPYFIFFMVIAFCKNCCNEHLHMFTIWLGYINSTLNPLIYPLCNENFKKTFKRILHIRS

Canis familiaris [41] = test: AUC (0 to t) in dog at 3 mg/kg, po; format: ADME, organism-based, Canis lupus familiaris, Plasma; parameters: dose 3 mg/kg, route oral; settings: in vivo
[42] = Plasma protein binding in human; format: ADME, cell-free; settings: read-out: PPB (converted)
[43] = Half life in dog at 1 mg/kg, iv; format: ADME, organism-based, Canis lupus familiaris; parameters: dose 1 mg/kg, route intravenous; settings: in vivo
[44] = Clearance in rat at 1 mg/kg, iv; format: ADME, organism-based; parameters: dose 1 mg/kg, route intravenous; settings: in vivo
Rattus norvegicus [45] = species: Rattus norvegicus; test: Inhibition of RAMH-induced dipsogenia in rat; format: functional
[46] = biological target: T3, Alpha-2C adrenergic receptor (Homo sapiens, UniProt P18825); test: Inhibition of alpha-2C adrenergic receptor (unknown origin)
T3 sequence (P18825 whole entry): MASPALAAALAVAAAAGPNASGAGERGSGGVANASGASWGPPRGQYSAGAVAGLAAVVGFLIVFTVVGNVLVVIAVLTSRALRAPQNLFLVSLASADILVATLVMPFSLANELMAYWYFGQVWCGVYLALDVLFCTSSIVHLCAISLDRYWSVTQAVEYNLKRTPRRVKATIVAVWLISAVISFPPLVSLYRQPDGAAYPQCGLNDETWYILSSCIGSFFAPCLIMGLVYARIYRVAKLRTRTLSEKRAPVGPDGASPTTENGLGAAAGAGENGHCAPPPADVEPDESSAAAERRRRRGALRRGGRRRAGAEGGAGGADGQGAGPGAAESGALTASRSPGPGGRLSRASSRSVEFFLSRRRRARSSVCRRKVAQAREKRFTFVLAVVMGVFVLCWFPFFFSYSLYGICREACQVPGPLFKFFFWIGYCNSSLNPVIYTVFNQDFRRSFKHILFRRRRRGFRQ

[47] = Aqueous solubility of the compound at pH 7.4; format: physicochemical
Histamine H4 receptor = Histamine H4 receptor (Homo sapiens, UniProt Q9H3N8); test: Inhibition of human H4R
Cytochrome P450 2C9 = Cytochrome P450 2C9 (Homo sapiens, UniProt P11712); test: Inhibition of CYP2C9 (unknown origin); format: ADME
Chain of Cytochrome P450 2C9 (P11712 whole entry): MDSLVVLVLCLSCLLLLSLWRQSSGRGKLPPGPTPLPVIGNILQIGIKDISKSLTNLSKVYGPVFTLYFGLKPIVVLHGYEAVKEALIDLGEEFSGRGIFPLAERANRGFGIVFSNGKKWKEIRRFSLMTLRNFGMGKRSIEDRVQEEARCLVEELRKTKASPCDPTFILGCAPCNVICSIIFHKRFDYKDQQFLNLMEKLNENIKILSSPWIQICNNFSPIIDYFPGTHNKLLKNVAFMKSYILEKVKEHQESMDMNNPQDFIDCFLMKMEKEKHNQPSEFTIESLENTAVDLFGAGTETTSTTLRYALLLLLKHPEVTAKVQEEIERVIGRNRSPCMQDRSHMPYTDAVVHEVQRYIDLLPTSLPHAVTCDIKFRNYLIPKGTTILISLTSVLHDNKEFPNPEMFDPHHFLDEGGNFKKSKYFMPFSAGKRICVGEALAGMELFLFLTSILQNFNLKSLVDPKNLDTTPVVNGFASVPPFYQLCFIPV

Cytochrome P450 2C19 = Cytochrome P450 2C19 (Homo sapiens, UniProt P33261); test: Inhibition of CYP2C19 (unknown origin); format: ADME
Chain of Cytochrome P450 2C19 (P33261 whole entry): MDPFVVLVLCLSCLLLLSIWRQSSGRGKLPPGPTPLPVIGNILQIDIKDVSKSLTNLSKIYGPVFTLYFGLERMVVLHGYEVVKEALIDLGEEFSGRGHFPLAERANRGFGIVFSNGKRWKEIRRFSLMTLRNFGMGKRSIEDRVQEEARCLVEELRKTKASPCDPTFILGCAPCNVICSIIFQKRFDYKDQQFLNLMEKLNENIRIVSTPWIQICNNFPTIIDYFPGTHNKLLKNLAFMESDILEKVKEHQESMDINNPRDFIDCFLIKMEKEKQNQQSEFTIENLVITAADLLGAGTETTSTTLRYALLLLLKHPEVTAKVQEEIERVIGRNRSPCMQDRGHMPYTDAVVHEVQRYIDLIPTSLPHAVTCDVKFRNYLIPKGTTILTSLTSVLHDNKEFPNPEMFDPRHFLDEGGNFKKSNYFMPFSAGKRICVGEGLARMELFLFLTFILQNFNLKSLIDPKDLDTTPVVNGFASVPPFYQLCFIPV

Cytochrome P450 3A4 = Cytochrome P450 3A4 (Homo sapiens, UniProt P08684); test: Inhibition of CYP3A4 (unknown origin); format: ADME
Chain of Cytochrome P450 3A4 (P08684 whole entry): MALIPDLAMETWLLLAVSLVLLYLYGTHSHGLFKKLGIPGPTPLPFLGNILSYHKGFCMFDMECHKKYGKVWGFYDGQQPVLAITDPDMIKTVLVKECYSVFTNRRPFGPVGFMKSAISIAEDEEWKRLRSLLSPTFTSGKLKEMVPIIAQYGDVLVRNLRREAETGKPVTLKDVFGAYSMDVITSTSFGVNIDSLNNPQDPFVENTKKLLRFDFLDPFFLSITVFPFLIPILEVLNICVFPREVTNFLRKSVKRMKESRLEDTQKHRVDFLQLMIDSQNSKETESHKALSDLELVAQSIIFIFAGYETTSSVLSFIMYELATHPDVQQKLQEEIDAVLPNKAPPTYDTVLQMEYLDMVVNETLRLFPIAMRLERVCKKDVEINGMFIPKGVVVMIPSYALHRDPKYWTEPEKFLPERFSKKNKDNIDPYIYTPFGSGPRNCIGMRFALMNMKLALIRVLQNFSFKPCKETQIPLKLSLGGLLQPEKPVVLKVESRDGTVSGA

Cytochrome P450 2D6 = Cytochrome P450 2D6 (Homo sapiens, UniProt P10635); test: Inhibition of CYP2D6 (unknown origin); format: ADME
Chain of Cytochrome P450 2D6 (P10635 whole entry): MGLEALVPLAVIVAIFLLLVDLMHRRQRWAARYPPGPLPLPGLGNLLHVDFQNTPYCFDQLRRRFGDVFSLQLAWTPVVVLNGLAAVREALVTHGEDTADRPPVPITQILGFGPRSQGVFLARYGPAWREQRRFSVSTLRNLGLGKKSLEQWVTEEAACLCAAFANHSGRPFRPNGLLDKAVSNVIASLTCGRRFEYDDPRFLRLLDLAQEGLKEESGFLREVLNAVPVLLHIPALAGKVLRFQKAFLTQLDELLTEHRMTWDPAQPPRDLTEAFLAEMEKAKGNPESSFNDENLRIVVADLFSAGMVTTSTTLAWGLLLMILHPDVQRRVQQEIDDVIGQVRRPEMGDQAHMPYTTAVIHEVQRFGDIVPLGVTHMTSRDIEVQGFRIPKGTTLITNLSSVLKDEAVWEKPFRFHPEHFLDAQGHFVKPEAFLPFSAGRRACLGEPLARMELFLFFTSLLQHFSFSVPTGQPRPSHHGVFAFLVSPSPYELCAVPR

T1 sequence (Q9Y5N1 whole entry): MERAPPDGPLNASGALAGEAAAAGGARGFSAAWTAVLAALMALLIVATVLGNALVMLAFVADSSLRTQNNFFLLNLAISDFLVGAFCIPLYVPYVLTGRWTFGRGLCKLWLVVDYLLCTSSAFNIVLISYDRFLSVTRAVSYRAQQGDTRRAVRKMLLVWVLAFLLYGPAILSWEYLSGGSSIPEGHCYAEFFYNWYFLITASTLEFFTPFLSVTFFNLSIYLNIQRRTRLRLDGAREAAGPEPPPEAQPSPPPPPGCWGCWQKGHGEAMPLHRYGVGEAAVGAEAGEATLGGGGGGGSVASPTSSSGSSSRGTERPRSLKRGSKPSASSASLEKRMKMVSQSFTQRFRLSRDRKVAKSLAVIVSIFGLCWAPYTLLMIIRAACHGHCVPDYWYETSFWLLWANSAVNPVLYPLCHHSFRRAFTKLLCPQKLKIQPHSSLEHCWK

- Ki (Histamine H3 receptor [1]): 3.7 nM
- bioavailability [2]: > 25%
- half-life [3]: > 40 min
- IC50 (Cytochrome P450 1A2): > 30000 nM
- half-life [4]: > 40 min
- half-life [5]: > 40 min
- half-life [6]: > 40 min
- clearance [7]: 11 mL/min/kg
- Ki (Histamine H3 receptor [8]): 13 nM
- half-life [9]: 84 min
- half-life [10]: > 40 min
SMILES: C[C@@H]1CCCN1CCCOc1ccc(C2=NNC(=O)C3CC23)cc1 (stereo partly drawn)

- Cmax [11]: 764 ng/mL
- Ki (Histamine H3 receptor [1]): 3.1 nM
- fraction unbound [12]: 0.19
- AUC(0-t) [14]: 9570 ng·h/mL
- Cmax [16]: 810 ng/mL
- bioavailability [17]: 34%
- solubility [18]: > 4000 µg/mL
- F (Canis familiaris [19]): 115%
- Papp [21]: 17.5 ×10⁻⁶ cm/s
- half-life [3]: > 40 min
- AUC(0-t) [22]: 5760 ng·h/mL
- Ki [25]: 10200 nM
- IC50 (Cytochrome P450 1A2): > 30000 nM
- bioavailability [28]: 136%
- half-life [29]: 66 min
- half-life [4]: > 40 min
- clearance [30]: 6 mL/min/kg
- Vd [31]: 4 L/kg
- half-life [5]: > 40 min
- half-life [32]: 462 min
- half-life [6]: > 40 min
- fraction unbound [33]: 0.4
- Vd [34]: 3.7 L/kg
- Kp at 2 h [35]: 2
- Vd [36]: 0.9 L/kg
- EC50 (Histamine H3 receptor [37]): 0.7 nM
- Ki (Histamine H2 receptor): > 10000 nM
- Ki (Histamine H3 receptor [8]): 9.9 nM
- Cmax [39]: 664 ng/mL
- Kp at 2 h [40]: 2.1
- Ki (Histamine H1 receptor): > 10000 nM
- AUCt (Canis familiaris [41]): 4205 ng·h/mL
- fraction unbound [42]: 0.55
- half-life [43]: 192 min
- clearance [44]: 9.6 mL/min/kg
- Ki [46]: 1500 nM
- solubility [47]: > 4000 µg/mL
- Ki (Histamine H4 receptor): > 10000 nM
SMILES: C[C@@H]1CCCN1CCCOc1ccc(C2=NNC(=O)[C@@H]3C[C@H]23)cc1
- AUC (Rattus norvegicus [13]): 233 min
- AUC (Rattus norvegicus [15]): 158 min
- Activity (Rattus norvegicus [20]): Dose-dependent effect
- Time (Rattus norvegicus [23]): 197 min
- AUC (Rattus norvegicus [24]): 128 min
- Activity (Rattus norvegicus [26]): Non-toxic
- Activity (Rattus norvegicus [27]): inactive
- Activity (Rattus norvegicus [38]): Non-toxic
- Activity (Rattus norvegicus [45]): Dose-dependent effect
- ED50 (Rattus norvegicus [45]): 0.14 mg/kg

- Ki (Histamine H3 receptor [1]): 13 nM
- Ki (Histamine H3 receptor [8]): 57 nM
SMILES: C[C@H]1CCCN1CCCOc1ccc(C2=NNC(=O)C3CC23)cc1 (mixture of isomers)

Continued, molecule first:

SMILES: Cc1cc(OCCCN2CCCCC2)ccc1C1=NNC(=O)C2CC12 (racemic)
- Ki (Histamine H3 receptor [1]): 39 nM
- Ki (Histamine H3 receptor [8]): 139 nM

SMILES: C[C@H](COc1ccc(C2=NNC(=O)C3CC23)cc1)CN1CCC[C@H]1C (mixture of isomers)
- Ki (Histamine H3 receptor [1]): 2.3 nM
- bioavailability [2]: > 25%
- half-life [3]: > 40 min
- IC50 (Cytochrome P450 2C9): > 30000 nM
- IC50 (Cytochrome P450 1A2): > 30000 nM
- half-life [4]: > 40 min
- half-life [5]: > 40 min
- half-life [6]: > 40 min
- clearance [7]: 19 mL/min/kg
- IC50 (Cytochrome P450 2C19): > 30000 nM
- Ki (Histamine H3 receptor [8]): 9.8 nM
- IC50 (Cytochrome P450 3A4): > 30000 nM
- half-life [9]: 108 min
- half-life [10]: > 40 min
- IC50 (Cytochrome P450 2D6): > 30000 nM

Reference: ChEMBL document CHEMBL3414489, “3,4-Diaza-bicyclo[4.1.0]hept-4-en-2-one phenoxypropylamine analogs of irdabisant (CEP-26401) as potent histamine-3 receptor inverse agonists with robust wake-promoting activity” (Eur J Med Chem, 2015)
